What was measured:
BCL2 WT = BCL2 WT (Homo sapiens (Human), UniProt P10415); assay: TR-FRET competitive binding assay, BCL2 WT; conditions: Ki determined from IC50, read-out: TR_FRET EKI_Bcl2 WT
Outline: (§1)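 Ki derived from IC50 (11-point dilution, 520/495 nm emission ratio) for displacing a fluorescein-labelled PUMA peptide (2 or 20 nM). Target was 0.5 nM E. coli-expressed Halo-tagged BCL2 (1-207) or BCLXL (2-196), terbium-labelled on Halo. Incubation 2 h at 23°C in pH 7.5 Hepes with 150 mM NaCl and 5% DMSO.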

BCL2 G101V [1] = molecular target: BCL2 G101V (Homo sapiens, UniProt P10415, G101V); assay: TR-FRET competitive binding assay, BCL2 G101V; conditions: BCL2 G101V; Ki determined from IC50; read-out: TR_FRET EKI_Bcl2 G101V
Outline: as §1

BCL2 G101V [2] = assay: TR-FRET competitive binding assay, BCL2 G101V; parameters: species or system human; conditions: ratio Ki BCL2 G101V / Ki BCL2 WT
Outline: as §1

BCL2 D103Y = BCL2 D103Y (Homo sapiens, UniProt P10415, D103Y); assay: TR-FRET competitive binding assay, BCL2 D103Y; conditions: Ki determined from IC50, read-out: TR_FRET EKI_Bcl2 D103Y
Outline: as §1

BCLXL WT = BCLXL WT (Homo sapiens (Human), UniProt Q07817); assay: TR-FRET competitive binding assay, BCLXL WT; conditions: for Ki: BCLXL WT, Ki determined from IC50, read-out: TR_FRET EKI BclxL; for TR_FRET EKI BCLxL/WT selectivty ratio: ratio Ki BCLxL / Ki BCL2 WT
Chain of BCLXL WT (Q07817 other isoform, or with tags, fused parts or gaps): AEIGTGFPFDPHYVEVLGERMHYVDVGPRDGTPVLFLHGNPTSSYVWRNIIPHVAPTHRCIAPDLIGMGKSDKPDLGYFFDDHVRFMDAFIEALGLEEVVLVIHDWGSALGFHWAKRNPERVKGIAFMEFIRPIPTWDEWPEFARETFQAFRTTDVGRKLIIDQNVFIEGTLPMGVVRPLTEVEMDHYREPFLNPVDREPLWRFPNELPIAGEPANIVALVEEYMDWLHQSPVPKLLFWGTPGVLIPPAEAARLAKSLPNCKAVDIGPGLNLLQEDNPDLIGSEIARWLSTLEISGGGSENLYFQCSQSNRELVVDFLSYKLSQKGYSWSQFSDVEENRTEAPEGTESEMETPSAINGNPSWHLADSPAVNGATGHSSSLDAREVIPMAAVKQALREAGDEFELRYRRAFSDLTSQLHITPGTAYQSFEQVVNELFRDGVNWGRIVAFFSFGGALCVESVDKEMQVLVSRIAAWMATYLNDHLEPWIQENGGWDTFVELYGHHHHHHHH
Outline: as §1

KMS-12-PE Bcl-2 WT = assay: In vitro cytotoxicity CellTiter-Glo 48 h, KMS-12-PE Bcl-2 WT; assay type: cell-based; conditions: Homo sapiens, KMS-12-PE, C50 = concentration needed to reach 50% of the cellular viability
Outline: (§2)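 Transduce KMS-12-PE with Bcl-2 WT or G101V lentivirus, then FACS-sort RFP-positive cells. Add compounds in an 11-point dilution series and incubate 48 h at 37 °C. Measure ATP-based luminescence with CellTiter-Glo and derive C50 (50% viability).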

KMS-12-PE Bcl-2 G101V = assay: In vitro cytotoxicity CellTiter-Glo 48 h, KMS-12-PE Bcl-2 G101V; assay type: cell-based; conditions: for Ratio (G101V/WT): C50 KMS-12-PE Bcl-2 G101V over C50 KMS-12-PE Bcl-2 WT; for IC50: Homo sapiens, KMS-12-PE, 48 h, CellTiter-Glo, C50 = concentration needed to reach 50% of the cellular viability
Outline: as §2

Row | SMILES | Ki (BCL2 WT) | Ki (BCL2 G101V [1]) | TR_FRET EKI G101V/WT selectivty ratio (BCL2 G101V [2]) | Ki (BCL2 D103Y) | Ki (BCLXL WT) | TR_FRET EKI BCLxL/WT selectivty ratio (BCLXL WT) | IC50 (KMS-12-PE Bcl-2 WT) | Ratio (G101V/WT) (KMS-12-PE Bcl-2 G101V) | IC50 (KMS-12-PE Bcl-2 G101V)
1 | Cc1c(N(C(=O)c2cc(-c3cc4c(cc3C(=O)N3Cc5ccccc5C[C@H]3C)CN(C(=O)Cc3ccc(OCCN5CCN(CC(F)(F)F)CC5)cc3)CC4)n(C)c2C)c2ccc(O)cc2)cc(C#N)n1C [Example 32, N-(5-cyano-1,2-dimethyl-1H-pyrrol-3-yl)-N-(4-hydroxyphenyl)-1,2-dimethyl-5-{7-[(3R)-3-methyl-1,2,3,4-tetrahydroisoquinoline-2-carbonyl]-2-[2-(4-{2-[4-(2,2,2-trifluoroethyl)piperazin-1-yl]ethoxy}phenyl)acetyl]-1,2,3,4-tetrahydroisoquinolin-6-yl}-1H-pyrrole-3-carboxamide] | 0.64 nM | 1.7 nM | 2.6 | 1.04 nM | 6.7 nM | 10.5 | 0.0073 µM | 5.38 | 0.0393 µM
2 | Cc1c(N(C(=O)c2cc(-c3cc4c(cc3C(=O)N3Cc5ccccc5C[C@H]3C)CN(C(=O)Cc3ccc(OCCN5CC6(CCS6(=O)=O)C5)cc3)CC4)n(C)c2C)c2ccc(O)cc2)cc(C#N)n1C [Example 37, N-(5-cyano-1,2-dimethyl-1H-pyrrol-3-yl)-5-(2-{2-[4-(2-{1,1-dioxo-1λ^6-thia-6-azaspiro[3.3]heptan-6-yl}ethoxy)phenyl]acetyl}-7-[(3R)-3-methyl-1,2,3,4-tetrahydroisoquinoline-2-carbonyl]-1,2,3,4-tetrahydroisoquinolin-6-yl)-N-(4-hydroxyphenyl)-1,2-dimethyl-1H-pyrrole-3-carboxamide] | 0.1 nM | 0.3 nM | 2.7 | 0.28 nM | 1.3 nM | 13.0 | 0.0174 µM | 5.36 | 0.0932 µM
3 | Cc1c(N(C(=O)c2cc(-c3cc4c(cc3C(=O)N3Cc5ccccc5C[C@H]3C)CN(C(=O)Cc3ccc(N5CCN6CC(F)(F)C[C@H]6C5)cc3F)CC4)n(C)c2C)c2ccc(O)cc2)cc(C#N)n1C [Example 40, 5-[2-(2-{4-[(8aS)-7,7-difluoro-hexahydropyrrolo[1,2-a]piperazin-2-yl]-2-fluorophenyl}acetyl)-7-{[(3R)-3-methyl-3,4-dihydro-1H-isoquinolin-2-yl]carbonyl}-3,4-dihydro-1H-isoquinolin-6-yl]-N-(5-cyano-1,2-dimethylpyrrol-3-yl)-N-(4-hydroxyphenyl)-1,2-dimethylpyrrole-3-carboxamide] | 0.68 nM | 3 nM | 4.4 | 2.11 nM | 7 nM | 10.3 | 0.0094 µM | 4.54 | 0.0426 µM
4 | CCn1c(C#N)cc(N(C(=O)c2cc(-c3cc4c(cc3C(=O)N3Cc5ccccc5C[C@H]3C)CN(C(=O)Cc3ccc(OCCN5CCOCC5)cc3)CC4)n(C)c2C)c2ccc(O)cc2)c1C [Example 41, N-(5-cyano-1-ethyl-2-methyl-pyrrol-3-yl)-N-(4-hydroxyphenyl)-1,2-dimethyl-5-[7-[(3R)-3-methyl-3,4-dihydro-1H-isoquinoline-2-carbonyl]-2-[2-[4-(2-morpholinoethoxy)phenyl]acetyl]-3,4-dihydro-1H-isoquinolin-6-yl]pyrrole-3-carboxamide] | 0.12 nM | 0.4 nM | 3.1 | 0.55 nM | 2 nM | 16.7 | 0.0094 µM | 5.41 | 0.051 µM
5 | Cc1c(N(C(=O)c2cc(-c3cc4c(cc3C(=O)N3Cc5ccccc5C[C@H]3C)CN(C(=O)Cc3ccc(OCCN5CC(F)C5)cc3)CC4)n(C)c2C)c2ccc(O)cc2)cc(C#N)n1C [Example 49, N-(5-cyano-1,2-dimethyl-1H-pyrrol-3-yl)-5-[2-(2-{4-[2-(3-fluoroazetidin-1-yl)ethoxy]phenyl}acetyl)-7-[(3R)-3-methyl-1,2,3,4-tetrahydroisoquinoline-2-carbonyl]-1,2,3,4-tetrahydroisoquinolin-6-yl]-N-(4-hydroxyphenyl)-1,2-dimethyl-1H-pyrrole-3-carboxamide] | 0.1 nM | 0.2 nM | 2.3 | 0.17 nM | 1.3 nM | 13.0 | 0.0118 µM | 5.91 | 0.0697 µM
6 | Cc1c(N(C(=O)c2cc(-c3cc4c(cc3C(=O)N3Cc5ccccc5C[C@H]3C)CN(Cc3cc5ccccc5cn3)CC4)n(C)c2C)c2ccc(O)cc2)cc(C#N)n1C [Example 58, N-(5-cyano-1,2-dimethylpyrrol-3-yl)-N-(4-hydroxyphenyl)-5-[2-(isoquinolin-3-ylmethyl)-7-{[(3R)-3-methyl-3,4-dihydro-1H-isoquinolin-2-yl]carbonyl}-3,4-dihydro-1H-isoquinolin-6-yl]-1,2-dimethylpyrrole-3-carboxamide] | 0.21 nM | 1.7 nM | 8.1 | 0.51 nM | 2.3 nM | 11.0 | 0.005 µM | 7.95 | 0.0396 µM
7 | Cc1c(N(C(=O)c2cc(-c3cc4c(cc3C(=O)N3Cc5ccccc5C[C@H]3C)CN(C(=O)Cc3ccc(OCCC5CCOCC5)nc3)CC4)n(C)c2C)c2ccc(O)cc2)cc(C#N)n1C [Example 59, N-(5-cyano-1,2-dimethyl-1H-pyrrol-3-yl)-N-(4-hydroxyphenyl)-1,2-dimethyl-5-{7-[(3R)-3-methyl-1,2,3,4-tetrahydroisoquinoline-2-carbonyl]-2-(2-{6-[2-(oxan-4-yl)ethoxy]pyridin-3-yl}acetyl)-1,2,3,4-tetrahydroisoquinolin-6-yl}-1H-pyrrole-3-carboxamide] | 0.16 nM | 0.7 nM | 4.6 | 0.4 nM | 3 nM | 19.1 | 0.0064 µM | 5.15 | 0.0331 µM
8 | Cc1c(C(=O)N(c2ccc(O)cc2)c2cc(C#N)n(C(C)C)c2C)cc(-c2cc3c(cc2C(=O)N2Cc4ccccc4C[C@H]2C)CN(C(=O)Cc2ccc(OCCN4CCOCC4)cc2)CC3)n1C [Example 64, N-(5-cyano-1-isopropyl-2-methyl-pyrrol-3-yl)-N-(4-hydroxyphenyl)-1,2-dimethyl-5-[7-[(3R)-3-methyl-3,4-dihydro-1H-isoquinoline-2-carbonyl]-2-[2-[4-(2-morpholinoethoxy)phenyl]acetyl]-3,4-dihydro-1H-isoquinolin-6-yl]pyrrole-3-carboxamide] | 0.11 nM | 0.5 nM | 4.5 | 0.79 nM | 2.8 nM | 25.5 | 0.0156 µM | 4.78 | 0.0745 µM

— US20250179047A1, “5-[7-(3,4-DIHYDRO-1H-ISOQUINOLINE-2-CARBONYL)-1,2,3,4 TETRAHYDROISOQUINOLIN-6-YL]-1H-PYRROLE-3-CARBOXAMIDE DERIVATIVES, PHARMACEUTICAL COMPOSITIONS CONTAINING THEM AND THEIR USES AS PRO-APOPTOTIC AGENTS” (LES LABORATOIRES SERVIER, priority 2022, published 2025)
